Values quoted from earlier work in patent publication US20230065900A1, “COMPOSITIONS AND METHODS FOR MODULATING INFLAMMATION AND WOUND HEALING” (Alastin Skincare, Inc., priority 2020, published 2023).

System: hyaluronic acid level
Conditions: ex vivo human skin model

With `CCCCCCCC(=O)CCc1ccc(O)c(OC)c1` [hydroxymethoxyphenyl decanone] as the compound, how does the “stimulation of dermal hyaluronic acid level versus placebo” value read?
The value was 259%.

What about the “stimulation of epidermal hyaluronic acid level versus placebo” value of the same compound?
The value was 198%.
